Results taken from patent US8202868B2, “4-piperazinyl-pyrimidine compounds suitable for treating disorders that respond to modulation of the dopamine D3 receptor” (Abbott GmbH & Co. KG, priority 2004, dated 2012).
Counter-ions that a name gives are not always drawn.

Tests used:
[1] = target: T1, human dopamine D3 receptors (Homo sapiens, UniProt P35462); assay: Dopamine D3 receptor binding, [125I]-iodosulpride displacement; conditions: for Ki: membranes of HEK-293 cells, 0.1 nM [125I]-iodosulpride, 25° C., 60 minutes; for Ki(D2)/Ki(D3): selectivity ratio of receptor binding constants
T1 construct: expressed in transfected cells; host or cells: HEK-293
Method: (§1) The substance to be tested was either dissolved in methanol/Chremophor® (BASF-AG) or in dimethyl sulfoxide and then diluted with water to the desired concentration.
(§2) Each assay mixture was run in triplicate.
The incubation buffer contained 50 mM tris, 120 mM NaCl, 5 mM KCl, 2 mM CaCl2, 2 mM MgCl2 and 0.1% bovine serum albumin, 10 μM quinolone and 0.1% ascorbic acid (prepared fresh daily). The buffer was adjusted to pH 7.4 with HCl.
(§3) After having been incubated at 25° C. for 60 minutes, the assay mixtures were filtered through a Whatman GF/B glass fiber filter under vacuum using a cell collecting device. The filters were transferred to scintillation viols using a filter transfer system. After 4 ml of Ultima Gold® (Packard) have been added, the samples were shaken for one hour and the radioactivity was then counted in a Beta-Counter (Packard, Tricarb 2000 or 2200CA). The cpm values were converted into dpm using a standard quench series and the program belonging to the instrument.
(§4) The inhibition curves were analyzed by means of iterative nonlinear regression analysis using the Statistical Analysis System (SAS) which is similar to the “LIGAND” program described by Munson and Rodbard.

[2] = target: T2, human dopamine D2L receptors (long isoform) (Homo sapiens, UniProt P14416); assay: Dopamine D2L receptor binding, [125I] iodospiperone displacement; conditions: membranes of HEK-293 cells, 0.01 nM [125I] iodospiperone, 25° C., 60 minutes; read-out: Ki(D2)
T2 construct: expressed in transfected cells; host or cells: HEK-293
Method: as §1, §2
The incubation buffer contained 50 mM tris, 120 mM NaCl, 5 mM KCl, 2 mM CaCl2, 2 mM MgCl2 and 0.1% bovine serum albumin. The buffer was adjusted to pH 7.4 with HCl.
as §3, §4

T1 sequence (P35462 whole entry): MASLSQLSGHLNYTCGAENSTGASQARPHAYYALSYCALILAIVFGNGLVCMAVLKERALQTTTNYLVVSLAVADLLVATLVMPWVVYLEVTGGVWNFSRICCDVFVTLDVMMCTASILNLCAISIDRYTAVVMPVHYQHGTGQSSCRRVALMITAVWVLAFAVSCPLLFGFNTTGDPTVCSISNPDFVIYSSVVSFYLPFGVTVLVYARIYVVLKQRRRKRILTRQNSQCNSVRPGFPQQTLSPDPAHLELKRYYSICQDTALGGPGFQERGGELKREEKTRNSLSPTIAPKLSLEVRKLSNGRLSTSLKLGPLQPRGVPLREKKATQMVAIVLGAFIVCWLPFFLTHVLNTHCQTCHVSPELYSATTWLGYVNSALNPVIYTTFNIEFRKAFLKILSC
T2 sequence (P14416 whole entry, canonical isoform): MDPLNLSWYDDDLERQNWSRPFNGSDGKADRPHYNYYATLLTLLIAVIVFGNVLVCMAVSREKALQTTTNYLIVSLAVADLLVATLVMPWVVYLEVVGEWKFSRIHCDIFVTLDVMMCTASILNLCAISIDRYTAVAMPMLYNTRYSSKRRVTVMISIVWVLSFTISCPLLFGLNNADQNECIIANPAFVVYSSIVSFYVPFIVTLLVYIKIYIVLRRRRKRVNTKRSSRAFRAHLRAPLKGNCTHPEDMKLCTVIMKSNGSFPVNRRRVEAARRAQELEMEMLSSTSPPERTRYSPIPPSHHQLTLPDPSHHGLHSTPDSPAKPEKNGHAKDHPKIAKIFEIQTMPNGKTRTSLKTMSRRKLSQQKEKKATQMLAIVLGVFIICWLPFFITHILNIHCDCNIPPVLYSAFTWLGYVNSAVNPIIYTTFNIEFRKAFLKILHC

In the case of `CC(C)(C)c1nc(C2CCC2)cc(N2CCN(CCCCNC(=O)c3cccnc3)CC2)n1` [Example 12, N-{4-[4-(2-tert-Butyl-6-cyclobutyl-pyrimidin-4-yl)-piperazin-1-yl]-butyl}-nicotinamide], the Ki [1] is reported as 1 nM, the “Ki(D2)/Ki(D3)” value [1] is reported as 121 and the Ki [2] is reported as 115 nM.

`CC(C)(C)c1nc(C2CCC2)cc(N2CCN(CCCOc3ncccn3)CC2)n1.Cl` [Example 27, 2-tert-Butyl-4-cyclobutyl-6-{4-[3-(pyrimidin-2-yloxy)-propyl]-piperazin-1-yl}-pyrimidine hydrochloride] was tested, and the Ki [1] was 2.1 nM, the “Ki(D2)/Ki(D3)” value [1] was 107 and the Ki [2] was 222 nM.

In the case of `Cn1c(SCCCN2CCN(c3cc(C(C)(C)C)nc(C4CC4)n3)CC2)nnc1-c1cnccn1` [Example 57, 2-cyclopropyl-4-{4-[3-(5-pyrazin-4-methyl-4H-[1,2,4]triazol-3-ylsulfanyl)-propyl]-piperazin-1-yl}6-tert-butyl-pyrimidine hydrochloride], the Ki [1] is reported as 5.47 nM, the “Ki(D2)/Ki(D3)” value [1] is reported as 296 and the Ki [2] is reported as 1610 nM.

`Cl.Cn1cccc1-c1nnc(SCCCN2CCN(c3cc(C4CCC4)nc(C(C)(C)C)n3)CC2)n1C` [Example 66, 2-tert-Butyl-4-cyclobutyl-6-(4-{3-[4-methyl-5-(1-methyl-1H-pyrrol-2-yl)-4H-[1,2,4]triazol-3-ylsulfanyl]-propyl}-piperazin-1-yl)-pyrimidine hydrochloride] was tested, and the Ki [1] was 0.96 nM, the “Ki(D2)/Ki(D3)” value [1] was 106 and the Ki [2] was 102 nM.

With `Cn1cnnc1SCCCN1CCN(c2cc(C(F)(F)F)nc(C3(C)CC3)n2)CC1` [Example 65, 2-(1-Methyl-cyclopropyl)-4-{4-[3-(4-methyl-4H-[1,2,4]triazol-3-ylsulfanyl)-propyl]-piperazin-1-yl}-6-trifluoromethyl-pyrimidine] the Ki [1] was 22.1 nM, the “Ki(D2)/Ki(D3)” value [1] was 36 and the Ki [2] was 797 nM.

In the case of `C[C@@H](COc1ccnc(O)n1)CN1CCN(c2cc(C3CCC3)nc(C(C)(C)C)n2)CC1` [Example 31, (R)-4-{3-[4-(2-tert-Butyl-6-cyclobutyl-pyrimidin-4-yl)-piperazin-1-yl]-2-methyl-propoxy}-pyrimidin-2-ol], the Ki [1] is reported as 2 nM, the “Ki(D2)/Ki(D3)” value [1] is reported as 72 and the Ki [2] is reported as 143 nM.

With `CC(C)(C)c1nc(C2CCC2)cc(N2CCN(CCCOc3nccc(O)n3)CC2)n1` [Example 26, 2-{3-[4-(2-tert-Butyl-6-cyclobutyl-pyrimidin-4-yl)-piperazin-1-yl]-propoxy}-pyrimidin-4-ol] the Ki [1] was 4.8 nM, the “Ki(D2)/Ki(D3)” value [1] was 70 and the Ki [2] was 337 nM.

`CC(C)(C)c1nc(C2CCC2)cc(N2CCN(CCCCNC(=O)c3ccncc3)CC2)n1.Cl` [Example 11, N-{4-[4-(2-tert-Butyl-6-cyclobutyl-pyrimidin-4-yl)-piperazin-1-yl]-butyl}-isonicotinamide hydrochloride] was tested, and the Ki [1] was 0.9 nM, the “Ki(D2)/Ki(D3)” value [1] was 150 and the Ki [2] was 137 nM.

With `Cn1cnnc1SCCCN1CCN(c2cc(C3(C)CC3)nc(C(C)(C)C)n2)CC1` [Example 53, 2-tert-butyl-4-{4-[3-(4-methyl-4H-[1,2,4]triazol-3-ylsulfanyl)-propyl]-piperazin-1-yl}-6-(1-methyl)cyclopropyl-pyrimidine] the Ki [1] was 1.2 nM, the “Ki(D2)/Ki(D3)” value [1] was 50 and the Ki [2] was 58 nM.

With `CC(C)(C)c1nc(C2CCC2)cc(N2CCN(CCCSc3ncccn3)CC2)n1.Cl` [Example 4, 2-tert-Butyl-4-cyclobutyl-6-{4-[3-(pyrimidin-2-ylsulfanyl)-propyl]-piperazin-1-yl}-pyrimidine hydrochloride] the Ki [1] was 0.9 nM, the “Ki(D2)/Ki(D3)” value [1] was 127 and the Ki [2] was 113 nM.

For `Cn1c(SCCCN2CCN(c3cc(C4CCC4)nc(C(C)(C)C)n3)CC2)nnc1C1CC1.O=C(O)/C=C/C(=O)O` [Example 44, 2-tert-Butyl-4-{4-[3-(4-methyl-5-cyclopropyl-4H-[1,2,4]triazol-3-ylsulfanyl)-propyl]-piperazin-1-yl}-6-cyclobutyl-pyrimidine fumarate], the Ki [1] was 0.6 nM, the “Ki(D2)/Ki(D3)” value [1] was 250 and the Ki [2] was 142 nM.

In the case of `Cl.Cn1c(SCCCN2CCN(c3cc(C4CC4)nc(C(C)(C)C)n3)CC2)nnc1C(F)(F)F` [Example 47, 2-tert-Butyl-4-{4-[3-(4-methyl-5-trifluoromethyl-4H-[1,2,4]triazol-3-ylsulfanyl)-propyl]-piperazin-1-yl}-6-cyclopropyl-pyrimidine hydrochloride], the Ki [1] is reported as 1.9 nM, the “Ki(D2)/Ki(D3)” value [1] is reported as 253 and the Ki [2] is reported as 484 nM.

`Cl.Cn1nnnc1SCCCN1CCN(c2cc(C3CC3)nc(C(C)(C)C)n2)CC1` [Example 35, 2-tert-Butyl-4-cyclopropyl-6-{4-[3-(1-methyl-1H-tetrazol-5-ylsulfanyl)-propyl]-piperazin-1-yl}-pyrimidine hydrochloride] was tested, and the Ki [1] was 3.8 nM, the “Ki(D2)/Ki(D3)” value [1] was 154 and the Ki [2] was 587 nM.

`Cc1nnc(SCCCN2CCN(c3cc(C4(C)CC4)nc(C(C)(C)C)n3)CC2)n1C` [Example 54, 2-tert-butyl-4-{4-[3-(4-methyl-5-methyl-4H-[1,2,4]triazol-3-ylsulfanyl)-propyl]piperazin-1-yl}-6-(1-methyl)cyclopropyl-pyrimidine] was tested, and the Ki [1] was 0.64 nM, the “Ki(D2)/Ki(D3)” value [1] was 124 and the Ki [2] was 80 nM.

With “2-tert-Butyl-4-cyclobutyl-6-{4-[3-(1-methyl-1H-tetrazol-5-ylsulfanyl)-propyl]-piperazin-1-yl}-pyrimidine [Example 9]” the Ki [1] was 4.1 nM, the “Ki(D2)/Ki(D3)” value [1] was 106 and the Ki [2] was 432 nM.

For `Cn1c(OCCCN2CCN(c3cc(C4CCC4)nc(C(C)(C)C)n3)CC2)nnc1-c1ccccc1` [Example 64, 2-tert-Butyl-4-cyclobutyl-6-{4-[3-(4-methyl-5-phenyl-4H-[1,2,4]triazol-3-yloxy)-propyl]-piperazin-1-yl}-pyrimidine], the Ki [1] was 1.6 nM, the “Ki(D2)/Ki(D3)” value [1] was 92 and the Ki [2] was 147 nM.

For `CC(C)(C)c1nc(C2CCC2)cc(N2CCN(CCCCc3nccc(O)n3)CC2)n1` [Example 34, 2-{4-[4-(2-tert-Butyl-6-cyclobutyl-pyrimidin-4-yl)-piperazin-1-yl]-butyl}-pyrimidin-4-ol], the Ki [1] was 1.1 nM, the “Ki(D2)/Ki(D3)” value [1] was 71 and the Ki [2] was 77 nM.

For `Cn1c(SCCCN2CCN(c3cc(C4CCC4)nc(C(C)(C)C)n3)CC2)nnc1C(F)(F)F` [Example 42, 2-tert-Butyl-4-{4-[3-(4-methyl-5-trifluoromethyl-4H-[1,2,4]triazol-3-ylsulfanyl)-propyl]-piperazin-1-yl}-6-cyclobutyl-pyrimidine], the Ki [1] was 2 nM, the “Ki(D2)/Ki(D3)” value [1] was 203 and the Ki [2] was 405 nM.

In the case of `Cc1nnc(SCCCN2CCN(c3cc(C4CCC4)nc(C(C)(C)C)n3)CC2)s1.Cl` [Example 2, 2-tert-Butyl-4-cyclobutyl-6-{4-[3-(5-methyl-[1,3,4]thiadiazol-2-ylsulfanyl)-propyl]-piperazin-1-yl}-pyrimidine hydrochloride], the Ki [1] is reported as 1.4 nM, the “Ki(D2)/Ki(D3)” value [1] is reported as 96 and the Ki [2] is reported as 135 nM.

For `Cc1nnc(SCCCN2CCN(c3cc(C4CC4)nc(C(C)(C)C)n3)CC2)n1C.Cl` [Example 45, 2-tert-Butyl-4-{4-[3-(4-methyl-5-methyl-4H-[1,2,4]triazol-3-ylsulfanyl)-propyl]-piperazin-1-yl}-6-cyclopropyl-pyrimidine hydrochloride], the Ki [1] was 1.2 nM, the “Ki(D2)/Ki(D3)” value [1] was 234 and the Ki [2] was 272 nM.

In the case of `CC(C)(C)c1nc(C2CC2)cc(N2CCN(CCCOc3nccc(O)n3)CC2)n1` [Example 37, 2-{3-[4-(2-tert-Butyl-6-cyclopropyl-pyrimidin-4-yl)-piperazin-1-yl]-propoxy}-pyrimidin-4-ol], the Ki [1] is reported as 7.1 nM, the “Ki(D2)/Ki(D3)” value [1] is reported as 51 and the Ki [2] is reported as 359 nM.

With `Cn1cnnc1SCCCN1CCN(c2cc(C3CCC3)nc(C(C)(C)C)n2)CC1` [Example 41, 2-tert-Butyl-4-{4-[3-(4-methyl-4H-[1,2,4]triazol-3-ylsulfanyl)-propyl]-piperazin-1-yl}-6-cyclobutylpyrimidine] the Ki [1] was 1.3 nM, the “Ki(D2)/Ki(D3)” value [1] was 314 and the Ki [2] was 405 nM.

`C[C@@H](COc1ncccn1)CN1CCN(c2cc(C3CCC3)nc(C(C)(C)C)n2)CC1.Cl` [Example 28, (R)-2-tert-Butyl-4-cyclobutyl-6-{4-[2-methyl-3-(pyrimidin-2-yloxy)-propyl]-piperazin-1-yl}-pyrimidine hydrochloride] was tested, and the Ki [1] was 3.8 nM, the “Ki(D2)/Ki(D3)” value [1] was 78 and the Ki [2] was 296 nM.

With `Cc1nnc(SCCCN2CCN(c3cc(C4CCC4)nc(C(C)(C)C)n3)CC2)n1C.O=C(O)/C=C/C(=O)O` [Example 43, 2-tert-Butyl-4-{4-[3-(4-methyl-5-methyl-4H-[1,2,4]triazol-3-ylsulfanyl)-propyl]-piperazin-1-yl}-6-cyclobutyl-pyrimidine fumarate] the Ki [1] was 1.5 nM, the “Ki(D2)/Ki(D3)” value [1] was 210 and the Ki [2] was 305 nM.

In the case of `Cn1c(OCCCN2CCN(c3cc(C4(C)CC4)nc(C(C)(C)C)n3)CC2)nnc1-c1ccccc1` [Example 63, 2-tert-Butyl-4-(1-methyl-cyclopropyl)-6-{4-[3-(4-methyl-5-phenyl-4H-[1,2,4]triazol-3-yloxy)-propyl]-piperazin-1-yl}-pyrimidine], the Ki [1] is reported as 2.6 nM, the “Ki(D2)/Ki(D3)” value [1] is reported as 40 and the Ki [2] is reported as 104 nM.
